Test results as given in patent US11998585B2, “Methods and compositions for increasing the dose of a chemotherapeutic agent” (Stealth BioTherapeutics Inc., priority 2012, dated 2024).
“Also recorded” adds a separate entry of the source.

Tested on: vincristine-induced hyperalgesia in rats
Assay: Vincristine-induced hyperalgesia in rats, electronic Von Frey test (paw-withdrawal threshold)
Type: in vivo, Sprague Dawley rats
Procedure: Female Sprague Dawley rats were divided randomly into 5 groups (n=10), according to Table 7. Groups 2-4 were administered Vincristine 0.10 mg/kg injected intravenously (i.v.) via tail vein followed by a bolus injection of 0.1 ml PBS vehicle, once daily for 14 days. Group 1 was administered 1 ml/kg PBS vehicle alone according to the same schedule. D-Arg-2′6′-dimethyltyrosine-Lys-Phe-NH2 10 mg/kg was administered subcutaneously (s.c.) 15 minutes prior to vincristine administration for the full 14-day period (Group 3), or for a period of two weeks beginning at day 15 (Group 4). Group 5 was administered Vincristine 0.10 mg/kg injected i.v. via tail vein, followed by a bolus injection of 0.1 ml PBS vehicle once daily for 28 days, and D-Arg-2′6′-dimethyltyrosine-Lys-Phe-NH2 10 mg/kg administered s.c. for a period of 14 days beginning at day 15.
Mechanical nociceptive threshold of paw-withdrawal was measured every two days using an electronic Von Frey test. Results are shown in FIG. 1 and FIG. 2 as means±SEM. One-way ANOVA with post-hoc test or t-test were used to assess the statistical significance, with p<0.05 is considered statistically significant. In FIG. 1, data for subjects receiving vincristine in the absence of simultaneous D-Arg-2′6′-dimethyltyrosine-Lys-Phe-NH2 (Groups 2, 4, 5) is shown collectively as “Group A.”

Molecule | pain threshold after withdrawal of vincristine, no peptide (Group 2: vincristine 0.10 mg/kg i.v. 14 days + PBS vehicle, followed after day 14, FIG. 2) | pain threshold (mechanical nociceptive threshold of paw-withdrawal) under vincristine (vincristine 0.10 mg/kg i.v. daily for 14 days without peptide, vs vehicle-only control (Group 1)) | treatment of vincristine-induced hyperalgesia (FIG. 2, rats, Groups 4 and 5) | pain threshold (mechanical nociceptive threshold of paw-withdrawal), prevention (Group 3: peptide 10 mg/kg s.c. daily 15 min prior to vincristine 0.10 mg/kg i.v. for 14 days, vs vehicle-only control (Group 1), FIG. 1) | pain threshold (mechanical nociceptive threshold of paw-withdrawal), treatment after withdrawal of vincristine (Group 4: vincristine 0.10 mg/kg i.v. 14 days, then peptide 10 mg/kg s.c. daily for two weeks beginning at day 15, FIG. 2) | pain threshold (mechanical nociceptive threshold of paw-withdrawal), treatment while vincristine continues (Group 5: vincristine 0.10 mg/kg i.v. 28 days, peptide 10 mg/kg s.c. daily for 14 days beginning at day 15, FIG. 2)
CC[C@]1(O)C[C@H]2CN(CCc3c([nH]c4ccccc34)[C@@](C(=O)OC)(c3cc4c(cc3OC)N(C=O)[C@H]3[C@@](O)(C(=O)OC)[C@H](OC(C)=O)[C@]5(CC)C=CCN6CC[C@]43[C@@H]65)C2)C1 [vincristine, reference compound] | continued to show a decline in pain thereshold, reaching a low point at day 21, and showed a moderate improvement beginning at day 22 | a decrease in pain threshold response compared to a vehicle-only control | – | – | – | –
D-Arg-2′6′-dimethyltyrosine-Lys-Phe-NH2 | – | – | effective in the treatment of vincristine-induced hyperalgesia in rats | not significantly different from the vehicle-only control; also recorded: effective in the prevention of vincristine-induced hyperalgesia in rats | improved pain threshold as soon as day 15, with continued improvement through day 25 | an arrest of the downward trend in pain threshold evident in the initial 14 day period, followed by an improvement in pain threshold beginning at day 16
